Measured values taken from the supplement of paper PMC11208160.

Test: recombinant UMI read abundance after kanamycin selection (control-corrected) (log10(CPM+1)); higher = more efficient recombination; extreme values may be limits of the assay; sequences stand for … in AGTGCAGAGAAAATCGGCCAGTTTTCTCTGCCTGCAGTCCGCATGCCGTGGGACCCCTTGGGTTCTAACCTGTTGCCTAGATTTATGCAGCGGACTGCCTTTCTCCCAAAGTGATAAACCGG…AGGTTGGTTTCACT; site = the 11-nt donor
How it was run: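 Values, expressed as log10(CPM+1), derive from recombinant UMI counts converted to CPM, averaged across replicates and scaled by control-derived factors. Plating was with IPTG (0.07 mM) plus kanamycin or unselected, two replicates each. The screen pooled donor and donor-binding-loop pairs for the IS621 bridge recombinase in Escherichia coli.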
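Note: IS621 bridge recombinase in Escherichia coli cells against a fixed T5 target plasmid.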

Row | Sequence | recombinant UMI read abundance (log10)
1 | GGCTAGACATGGACCGGTTTTCCCGGTAATCCGTATTTGTG (site GGCTAGACTCA) | 0.659
2 | GGCTATCCATGGACCGGTTTTCCCGGTAATCCGTATTTGAA (site GGCAATCCTTT) | 0.00767
3 | GGCTATCCATGGACCGGTTTTCCCGGTAATCCGTATTTGAA (site GGCCATCCTTT) | 0.0272
4 | GGCTATCCATGGACCGGTTTTCCCGGTAATCCGTATTTGAA (site GGCGATCCTTT) | 0.0136
5 | GGCTATCCATGGACCGGTTTTCCCGGTAATCCGTATTTGAA (site GGCTATCCTTT) | 0.133
6 | GGCTCCTCATGGACCGGTTTTCCCGGTAATCCGTATTTGTA (site GGCTCCTCTTA) | 1.84
7 | GGCTGGCCATGGACCGGTTTTCCCGGTAATCCGTATTTGAT (site GGCTGGCCTAT) | 0.0261
8 | GGGAAAACATGGACCGGTTTTCCCGGTAATCCGTATTTGCT (site GAGAAAACTAG) | 0
9 | GGGAAAACATGGACCGGTTTTCCCGGTAATCCGTATTTGCT (site GCGAAAACTAG) | 0.0308
10 | GGGAAAACATGGACCGGTTTTCCCGGTAATCCGTATTTGCT (site GGGAAAACTAG) | 0
11 | GGGAAAACATGGACCGGTTTTCCCGGTAATCCGTATTTGCT (site GTGAAAACTAG) | 0
12 | GGGAAGACATGGACCGGTTTTCCCGGTAATCCGTATTTGCA (site AGGAAGACTTG) | 0.813
13 | GGGAAGACATGGACCGGTTTTCCCGGTAATCCGTATTTGCA (site CGGAAGACTTG) | 0
14 | GGGAAGACATGGACCGGTTTTCCCGGTAATCCGTATTTGCA (site GGGAAGACTTG) | 1.96
15 | GGGAAGACATGGACCGGTTTTCCCGGTAATCCGTATTTGCA (site TGGAAGACTTG) | 1.19
16 | GGGAAGACATGGACCGGTTTTCCCGGTAATCCGTATTTGCT (site AGGAAGACTTG) | 0
17 | GGGAAGACATGGACCGGTTTTCCCGGTAATCCGTATTTGCT (site GGGAAGACTAG) | 1.69
18 | GGGAATACATGGACCGGTTTTCCCGGTAATCCGTATTTGAG (site GGGAATACTCT) | 1.35
19 | GGGAATCCATGGACCGGTTTTCCCGGTAATCCGTATTTGTC (site CGGAATCCTAA) | 0.00512
20 | GGGAATCCATGGACCGGTTTTCCCGGTAATCCGTATTTGTC (site GGGAATCCTGA) | 0
21 | GGGACAACATGGACCGGTTTTCCCGGTAATCCGTATTTGTG (site GGGACAACTCA) | 0.439
22 | GGGACATCATGGACCGGTTTTCCCGGTAATCCGTATTTGGA (site GGGACATCTTC) | 1.52
23 | GGGACGTCATGGACCGGTTTTCCCGGTAATCCGTATTTGTG (site GGGACGTCTCA) | 2.05

Row | Sequence | recombinant UMI read abundance (log10)
24 | GGGCAATCATGGACCGGTTTTCCCGGTAATCCGTATTTGTC (site GGGCAATCTGA) | 2.8
25 | GGGCAATCATGGACCGGTTTTCCCGGTAATCCGTATTTGTG (site GGGCAATCTCA) | 1.92
26 | GGGCATGCATGGACCGGTTTTCCCGGTAATCCGTATTTGAG (site GGGCATGCTCT) | 1.57
27 | GGGCATGCATGGACCGGTTTTCCCGGTAATCCGTATTTGGT (site GAGCATGCTAC) | 0.336
28 | GGGCATGCATGGACCGGTTTTCCCGGTAATCCGTATTTGGT (site GCGCATGCTAC) | 0.0126
29 | GGGCATGCATGGACCGGTTTTCCCGGTAATCCGTATTTGGT (site GGGCATGCTAC) | 1.33
30 | GGGCATGCATGGACCGGTTTTCCCGGTAATCCGTATTTGGT (site GTGCATGCTAC) | 0.161
31 | GGGCCAACATGGACCGGTTTTCCCGGTAATCCGTATTTGTG (site GGGCCAACTCA) | 0
32 | GGGCCACCATGGACCGGTTTTCCCGGTAATCCGTATTTGCA (site GGGACACCTTG) | 0
33 | GGGCCACCATGGACCGGTTTTCCCGGTAATCCGTATTTGCA (site GGGCCACCTTG) | 0
34 | GGGCCACCATGGACCGGTTTTCCCGGTAATCCGTATTTGCA (site GGGGCACCTTG) | 0
35 | GGGCCACCATGGACCGGTTTTCCCGGTAATCCGTATTTGCA (site GGGTCACCTTG) | 0.00812
36 | GGGCCTACATGGACCGGTTTTCCCGGTAATCCGTATTTGCT (site GGGCCTACTAG) | 1.86
37 | GGGCCTGCATGGACCGGTTTTCCCGGTAATCCGTATTTGTG (site GGGCCTGCTCA) | 0.38
38 | GGGCGAACATGGACCGGTTTTCCCGGTAATCCGTATTTGGA (site GGGCGAACTTC) | 0.799
39 | GGGCGTCCATGGACCGGTTTTCCCGGTAATCCGTATTTGCA (site GGGCGTCCTTG) | 2.59
40 | GGGCGTCCATGGACCGGTTTTCCCGGTAATCCGTATTTGGT (site GGGCGTCCTAC) | 0
41 | GGGCTTGCATGGACCGGTTTTCCCGGTAATCCGTATTTGGA (site GGGCTTGCTTC) | 0.564
42 | GGGGAATCATGGACCGGTTTTCCCGGTAATCCGTATTTGGT (site GGGGAATCTAC) | 0.628
43 | GGGGAGGCATGGACCGGTTTTCCCGGTAATCCGTATTTGTG (site GAGGAGGCTCA) | 0
44 | GGGGAGGCATGGACCGGTTTTCCCGGTAATCCGTATTTGTG (site GCGGAGGCTCA) | 0.00803
45 | GGGGAGGCATGGACCGGTTTTCCCGGTAATCCGTATTTGTG (site GGGGAGGCTCA) | 0.851
46 | GGGGAGGCATGGACCGGTTTTCCCGGTAATCCGTATTTGTG (site GTGGAGGCTCA) | 0.134

Row | Sequence | recombinant UMI read abundance (log10)
47 | GGGGAGTCATGGACCGGTTTTCCCGGTAATCCGTATTTGCC (site AGGGAGTCTGG) | 1.14
48 | GGGGAGTCATGGACCGGTTTTCCCGGTAATCCGTATTTGCC (site CGGGAGTCTGG) | 0
49 | GGGGAGTCATGGACCGGTTTTCCCGGTAATCCGTATTTGCC (site GGGGAGTCTGG) | 1.78
50 | GGGGAGTCATGGACCGGTTTTCCCGGTAATCCGTATTTGCC (site TGGGAGTCTGG) | 1.02
51 | GGGGCACCATGGACCGGTTTTCCCGGTAATCCGTATTTGCG (site GGGGCACCTAG) | 0.0129
52 | GGGGCACCATGGACCGGTTTTCCCGGTAATCCGTATTTGCG (site GGGGCACCTCG) | 0.0566
53 | GGGGCACCATGGACCGGTTTTCCCGGTAATCCGTATTTGCG (site GGGGCACCTGG) | 0
54 | GGGGCACCATGGACCGGTTTTCCCGGTAATCCGTATTTGCG (site GGGGCACCTTG) | 0
55 | GGGGCACCATGGACCGGTTTTCCCGGTAATCCGTATTTGCT (site GGGGCACCTAG) | 0
56 | GGGGCACCATGGACCGGTTTTCCCGGTAATCCGTATTTGCT (site GGGGCACCTCG) | 0.0126
57 | GGGGCACCATGGACCGGTTTTCCCGGTAATCCGTATTTGCT (site GGGGCACCTGG) | 0
58 | GGGGCACCATGGACCGGTTTTCCCGGTAATCCGTATTTGCT (site GGGGCACCTTG) | 0
59 | GGGGCACCATGGACCGGTTTTCCCGGTAATCCGTATTTGGA (site GGGGCACCTTA) | 0
60 | GGGGCACCATGGACCGGTTTTCCCGGTAATCCGTATTTGGA (site GGGGCACCTTC) | 0.0209
61 | GGGGCACCATGGACCGGTTTTCCCGGTAATCCGTATTTGGA (site GGGGCACCTTG) | 0
62 | GGGGCACCATGGACCGGTTTTCCCGGTAATCCGTATTTGGA (site GGGGCACCTTT) | 0.0158
63 | GGGGCATCATGGACCGGTTTTCCCGGTAATCCGTATTTGCA (site GGGGCAACTTG) | 0
64 | GGGGCATCATGGACCGGTTTTCCCGGTAATCCGTATTTGCA (site GGGGCACCTTG) | 0
65 | GGGGCATCATGGACCGGTTTTCCCGGTAATCCGTATTTGCA (site GGGGCAGCTTG) | 0
66 | GGGGCATCATGGACCGGTTTTCCCGGTAATCCGTATTTGCA (site GGGGCATCTTG) | 2.13
67 | GGGGTTCCATGGACCGGTTTTCCCGGTAATCCGTATTTGAA (site GGGGTTCCTTT) | 0
68 | GGGTACTCATGGACCGGTTTTCCCGGTAATCCGTATTTGCT (site GGGTACTCTAG) | 3.34
